Consider three compounds from patent publication US20010051167A1, “USE OF 17-ALPHA-ESTRADIOL FOR THE TREATMENT OF AGED OR SUNDAMAGED SKIN AND/OR SKIN ATROPHY” (priority 1997, published 2001).

The structures appear in SMILES notation.

Assay [1] deals with epidermis of albino hairless mice (Skh-1). In words: Thickness of the epidermis after 10 weeks of topical treatment. The assay is classed as in vivo, mouse.
Assay [2] deals with skin of albino hairless mice (Skh-1). In words: Estrogen-induced thickening of the skin (double skin-fold thickness). In kind it is in vivo, mouse. The conditions noted are these: Example 4, 3 days of topical treatment. On the procedure: In the second method, topical estrogens increase the thickness of the entire skin by enhancing its water content. This is due to estrogen-stimulated increases in hyaluronic acid, which is a biomolecule that has an avid water binding capacity (Grosman et al. Acta Pharmacol. Toxicol., 1971, Vol. 30, pp. 458-464). Estrogen-induced thickening of the skin was assessed in albino hairless mice (Skh-1). The skin is topically treated for 3 days with 0.1 mL test material. The next day after the last dose, double skin-fold thickness is measured with an engineer's vernier calipers. This example compares the effects of 17-α-Estradiol and 17-β-Estradiol on skin thickening after 3 days of topical treatment.

Assay [3] has as its system UV-photodamaged dorsal trunk skin of albino hairless mice (Skh-1). Put plainly: Dermal repair zone depth in UV-photodamaged hairless mouse skin after topical treatment. In kind it is in vivo. The source says: In one method, a deficit in connective tissue synthesis is induced by long-term exposure of mouse skin to ultraviolet (UV) radiation. […] The repair can be visualized as a region of new connective tissue which forms as a subepidermal band in the papillary dermis after topical retinoid treatment (Kligman LH, Chapter 10: Animal Models of Photodamage and Its Treatment, pp. 136-156, In: Photodamage, edited by B. A. Gilchrest, 1995, Blackwell Science, Cambridge, Mass.). The old malformed elastotic tissue, produced during UV exposure, is compressed by the retinoid-induced new connective tissue zone.
Connective tissue photodamage was induced in albino hairless mice (Skh-1) (six to eight weeks old) by exposure of dorsal trunk skin to UV from FS40 fluorescent tubes, three days per week (Monday, Wednesday, Friday) for ten weeks. The UV dose started with one minimal erythemal dose (MED) and was increased gradually to 4.5 MEDs by week 5 and then continued at 4.5 MEDs for five more weeks. At the beginning of week 11, mice were treated topically with 0.1 mL test material on the dorsal trunk skin, three times per week (Monday, Wednesday, Friday) for 6 to 10 weeks. At the end of treatment, dorsal skin was excised and placed in 10% buffered formalin. The specimens were embedded, sectioned and stained with Luna's aldehyde fuchsin for elastic fibers. The dermal repair zone, defined as the area from the epidermal-dermal junction to the top of the compressed elastotic material, was quantified by measuring the depth of the zones with an image analyzer. […]

Assay [4] has as its system markers of reproductive function. The conditions noted are these: humans; administered subcutaneously; cited from earlier work.
Where [5] appears, read: Example 2, topical dose 0.1%, 10 Weeks.
The mark [6] stands for this setting: Example 3, topical dose 0.01%, 10 weeks.

As for `C[C@]12CCC3c4ccc(O)cc4CCC3C1CC[C@H]2O` (stereo partly drawn) [17-α-estradiol], the “Epidermal Thickness (μm) ± SE” value in assay [1] (Example 5, topical dose 0.05%) is 29.3 ± 0.3 μm; in assay [1] (Example 5, topical dose 0.1%), 37.3 ± 1.8 μm; in assay [1] (Example 5, topical dose 0.5%) it was 42.9 ± 3.8 μm. Moreover, the results for the Skin-Fold Thickness (mm) ± SE in assay [2] (topical dose 0.01%), in assay [2] (topical dose 0.1%) and in assay [2] (topical dose 0.5%) were 1.16 ± 0.07 mm, 1.43 ± 0.06 mm and 1.52 ± 0.14 mm, respectively. For the same compound, the “Repair Zone Depth (μm) ± SE” value in assay [3] (Example 1, topical dose 0.50%, 10 weeks, 0.1 mL three times per week) stood at 71.8 ± 3.0 μm; in assay [3] (Example 2, topical dose 0.05%, 10 Weeks), 36.8 ± 2.4 μm; in assay [3] (setting [5]), 44.3 ± 2.3 μm; in assay [3] (Example 2, topical dose 0.5%, 6 Weeks), 44.6 ± 2.7 μm; in assay [3] (Example 2, topical dose 0.5%, 10 Weeks) it was 51.6 ± 3.5 μm; in assay [3] (setting [6]), 49.4 ± 3.7 μm. Besides, the “Repair Zone Depth (μm) ± SE” value in assay [3] (Example 3, topical dose 0.05%, 10 weeks) worked out at 34.3 ± 3.7 μm; in assay [3] (Example 3, topical dose 0.5%, 10 weeks) it was 62.4 ± 4.2 μm. In assay [4], the “biological activity on markers of reproductive function” value is reported as “lacked biological activity”.

For the compound `C[C@]12CC[C@@H]3c4ccc(O)cc4CC[C@H]3[C@@H]1CC[C@@H]2O` [17-β-estradiol], the “Epidermal Thickness (μm) ± SE” value came out at 32.0 ± 1.2 μm in assay [1] (Example 5, topical dose 0.005%); 28.3 ± 1.8 μm in assay [1] (Example 5, topical dose 0.01%); 48.1 ± 2.9 μm in assay [1] (Example 5, topical dose 0.1%). Also, the Skin-Fold Thickness (mm) ± SE in assay [2] (topical dose 0.001%) stood at 1.25 ± 0.08 mm; in assay [2] (topical dose 0.01%), 1.62 ± 0.11 mm; in assay [2] (topical dose 0.1%) it was 1.5 ± 0.13 mm. In addition, the “Repair Zone Depth (μm) ± SE” value in assay [3] (Example 1, topical dose 0.01%, 10 weeks, 0.1 mL three times per week) is reported as 57.4 ± 6.1 μm; in assay [3] (Example 2, topical dose 0.1%, 6 Weeks), 46.3 ± 0.9 μm; in assay [3] (setting [5]) it was 38.7 ± 2.5 μm; in assay [3] (Example 3, topical dose 0.005%, 10 weeks) it was 45.2 ± 3.1 μm; in assay [3] (setting [6]) it was 53.4 ± 2.1 μm; in assay [3] (Example 3, topical dose 0.1%, 10 weeks) it was 68.2 ± 6.0 μm.

With `CC1=C(/C=C/C(C)=C/C=C/C(C)=C/C(=O)O)C(C)(C)CCC1` [All-trans-retinoic acid], the “Epidermal Thickness (μm) ± SE” value in assay [1] (Example 5, topical dose 0.03%) is on record as 52.8 ± 3.6 μm. Besides, the “Repair Zone Depth (μm) ± SE” value in assay [3] (Example 1, topical dose 0.03%, 10 weeks, 0.1 mL three times per week) amounted to 72.0 ± 2.6 μm; in assay [3] (Example 2, topical dose 0.03%, 6 Weeks), 44.5 ± 3.9 μm; in assay [3] (Example 2, topical dose 0.03%, 10 Weeks), 59.0 ± 2.3 μm; in assay [3] (Example 3, topical dose 0.03%, 10 weeks), 72.0 ± 3.3 μm.
